Laboratory results as given in the supplement of paper PMC10307832.

Tests used:
Test in all cases: relative viability (nuclei count vs DMSO), 5 days (fraction); higher = more cells survive
[1] = compound: CCOC(=O)CCNc1cc(N2CCc3ccccc3CC2)nc(-c2ccccn2)n1 [GSK-J4] + N=C(N)NC(=N)NCCc1ccccc1 [Phenformin] (partner 250 µM)
Outline: (§1)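 A single step with final 0.05% Triton X-100, 1% formaldehyde and 1 ug/ml Hoechst fixed the cells and stained nuclei 5 days after treatment. Lung cancer cell lines in 1536-well plates had been treated by pin tool the day after seeding with one drug alone or a fixed anchor-drug dose plus five library-drug doses (not always all listed) in √10 steps, and nuclei were counted on 4× images. Relative viability is the ratio of nuclei in treated wells to nuclei in vehicle wells, taken as the median of duplicate plates.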

[2] = compound: CCOC(=O)CCNc1cc(N2CCc3ccccc3CC2)nc(-c2ccccn2)n1 [GSK-J4] + CC(=O)Nc1cccc(-n2c(=O)n(C3CC3)c(=O)c3c(Nc4ccc(I)cc4F)n(C)c(=O)c(C)c32)c1 [Trametinib] (partner 0.02 µM)
Outline: as §1

[3] = compound: CCOC(=O)CCNc1cc(N2CCc3ccccc3CC2)nc(-c2ccccn2)n1 [GSK-J4] + Nc1ncn([C@H]2C[C@H](O)[C@@H](CO)O2)c(=O)n1 [Decitabine] (partner 2 µM)
Outline: as §1

[4] = compound: CN1CCC(CC1)OC2=CC(=C(C=C2)NC3=NC=C4C(=N3)N(C(=O)N4C)C5CCCC5)OC [AZ3146] + CC1(C)CCC(c2ccc(Cl)cc2)=C(CN2CCN(c3ccc(C(=O)NS(=O)(=O)c4ccc(N[C@H](CCN5CCOCC5)CSc5ccccc5)c(S(=O)(=O)C(F)(F)F)c4)cc3)CC2)C1 [Navitoclax] (partner 0.5 µM)
Outline: as §1

Cell Line	relative viability ([1]; first compound 0.5 µM)	relative viability ([1]; first compound 1.581 µM)	relative viability ([1]; first compound 5 µM)	relative viability ([1]; first compound 15.81 µM)	relative viability ([1]; first compound 50 µM)	relative viability ([2]; first compound 0.5 µM)	relative viability ([2]; first compound 1.581 µM)	relative viability ([2]; first compound 15.81 µM)	relative viability ([2]; first compound 50 µM)	relative viability ([3]; first compound 0.5 µM)	relative viability ([3]; first compound 1.581 µM)	relative viability ([3]; first compound 15.81 µM)	relative viability ([3]; first compound 50 µM)	relative viability ([4]; first compound 0.08 µM)	relative viability ([4]; first compound 0.253 µM)	relative viability ([4]; first compound 0.8 µM)	relative viability ([4]; first compound 2.53 µM)	relative viability ([4]; first compound 8 µM)	relative viability ([2]; first compound 5 µM)	relative viability ([3]; first compound 5 µM)
NCI-H522	0.64	0.656	0.595	0.543	0.588	0.817	0.6	0.75	0.7	0.776	0.611	0.573	0.651	–	–	–	–	–	–	–
HCC-366	0.574	0.579	–	0.482	0.59	0.354	0.319	0.234	0.21	0.33	0.283	0.283	0.277	1.01	0.958	1.06	1.16	1.14	–	–
A-427	0.406	–	0.219	0.218	0.138	0.702	0.567	0.559	0.552	0.554	0.528	0.523	0.434	0.96	0.967	0.957	0.98	0.943	–	–
NCI-H2347	0.324	0.384	0.507	–	0.499	0.25	0.273	0.32	0.285	0.584	0.606	0.58	0.503	0.76	0.763	0.594	0.88	0.833	0.275	0.57
NCI-H1792	0.267	0.258	0.185	0.529	0.318	0.523	0.44	0.39	0.38	0.559	0.472	0.428	0.43	0.492	0.786	0.582	0.64	0.654	0.468	0.589
SK-LU-1	0.48	0.495	0.323	0.365	0.245	0.468	0.499	0.43	0.383	0.653	0.605	0.633	0.524	0.914	0.702	0.793	0.926	0.576	0.385	0.538
RERF-LC-KJ	0.424	0.441	0.401	0.417	0.341	0.85	0.845	0.708	0.66	0.624	0.605	0.654	0.417	0.872	0.878	1.04	0.787	0.839	0.931	0.602
NCI-H1993	0.476	0.545	0.555	0.548	0.456	0.514	0.504	0.544	0.532	0.643	0.554	0.6	0.507	0.972	0.935	0.993	0.929	0.898	0.497	0.388
NCI-H1734	0.425	0.365	0.328	0.332	0.31	0.633	0.524	0.58	0.545	0.542	0.447	0.492	0.376	0.821	0.828	0.831	0.847	0.846	0.627	0.507
HCC-44	0.253	0.222	0.134	0.124	0.137	1.1	0.91	1.04	1.03	0.932	0.716	1.03	1.06	0.877	1.04	0.985	1.01	1.01	1.06	0.823
NCI-H1944	0.2	0.193	0.124	0.155	0.174	0.4	0.394	0.307	0.357	0.411	0.381	0.367	0.412	–	1.02	1	1.13	1.15	–	–
HCC-78	0.87	0.731	0.946	0.588	0.528	0.765	0.706	0.559	1.02	0.726	0.633	0.549	0.621	–	0.795	0.718	0.899	0.736	1.15	0.71
NCI-H838	0.798	0.465	–	0.528	0.487	0.566	0.455	0.436	0.332	0.459	0.363	0.406	0.316	1.12	1.19	1.17	1.13	0.93	0.223	0.407
SW 1573	0.315	0.326	0.336	0.262	0.247	0.577	0.474	0.599	0.381	0.592	0.645	0.442	0.204	0.997	1.1	1.04	0.93	0.895	0.651	0.436
